The target of one test is T1, Androgen receptor (Homo sapiens, UniProt P10275).
T1 sequence (P10275 whole entry): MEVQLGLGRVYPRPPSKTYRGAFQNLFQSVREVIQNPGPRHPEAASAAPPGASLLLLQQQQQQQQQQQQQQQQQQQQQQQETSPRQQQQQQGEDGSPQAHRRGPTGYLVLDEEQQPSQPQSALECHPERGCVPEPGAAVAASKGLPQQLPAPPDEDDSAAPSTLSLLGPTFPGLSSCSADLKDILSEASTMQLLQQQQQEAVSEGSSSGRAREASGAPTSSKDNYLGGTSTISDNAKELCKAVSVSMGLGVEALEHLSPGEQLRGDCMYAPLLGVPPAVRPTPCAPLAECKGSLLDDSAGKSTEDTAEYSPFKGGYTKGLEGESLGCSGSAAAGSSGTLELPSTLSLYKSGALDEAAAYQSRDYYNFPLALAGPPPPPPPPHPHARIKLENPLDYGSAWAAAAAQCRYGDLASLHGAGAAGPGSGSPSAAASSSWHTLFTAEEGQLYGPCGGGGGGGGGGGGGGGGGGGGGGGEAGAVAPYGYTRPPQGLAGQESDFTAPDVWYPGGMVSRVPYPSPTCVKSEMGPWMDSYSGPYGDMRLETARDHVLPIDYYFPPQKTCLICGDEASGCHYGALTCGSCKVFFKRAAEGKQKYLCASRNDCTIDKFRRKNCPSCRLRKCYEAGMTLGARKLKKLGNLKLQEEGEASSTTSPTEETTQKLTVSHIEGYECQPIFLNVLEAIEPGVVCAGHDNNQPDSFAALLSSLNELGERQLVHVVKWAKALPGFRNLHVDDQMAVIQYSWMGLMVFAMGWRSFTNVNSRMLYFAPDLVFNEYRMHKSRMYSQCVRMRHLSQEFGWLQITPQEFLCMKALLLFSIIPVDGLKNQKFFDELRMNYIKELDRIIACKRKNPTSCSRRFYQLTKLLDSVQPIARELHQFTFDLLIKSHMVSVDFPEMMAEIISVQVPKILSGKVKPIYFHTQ
In words: Binding affinity to androgen receptor by fluorescence binding assay.

In a further test the test system is Rattus norvegicus. Briefly: Positive-anabolic effect in Sprague-Dawley rat assessed as increase in leavator ani muscle weight at 30 mg/kg, po administered once daily for 4 days and measured 24 hrs after the last dose by Herschberger assay. The class given is functional, organism-based. On the set-up: dose 30 mg/kg. As to conditions: Muscle tissue.

Usually IC50 stands for the concentration that gives 50% inhibition. The low end stands for greater potency in that assay, the high end for weaker potency in that assay.

Molecules are shown by their SMILES. Activity calls are given as the source filed them. The rule behind the calls is not given here. A value given as a limit tells only on which side of the number the result lay.

The compound `OC1(C(F)(F)F)CCCc2c1[nH]c1c(Cl)cc(Cl)cc21` (stereo unspecified) displayed an IC50 at Androgen receptor of 34 nM.
Still for that read-out and setting: the same measure for `N#Cc1ccc2[nH]c3c(c2c1)CCCC3(O)C(F)(F)F` (stereo unspecified): 480 nM; for `OC1(C(F)(F)F)CCCc2c1[nH]c1c(Cl)ccc(Cl)c21` (stereo unspecified): 85 nM.
Compound `OC1(C(F)(F)F)c2[nH]c3c(Cl)cc(Cl)cc3c2CCC1(F)F` (stereo unspecified) registered an IC50 on Androgen receptor of 100 nM.
Still for that read-out and setting: the same measure for `Oc1c(Cc2ccccc2)ccc2c1[nH]c1cc(Cl)c(Cl)cc12`: over 1000 nM; for `OC1(C(F)(F)F)CCc2c1[nH]c1c(Cl)cc(Cl)cc21` (stereo unspecified): 13 nM.
With `OC1(C(F)(F)F)CCCc2c1[nH]c1cc(Cl)c(Cl)cc21` (stereo unspecified), the result in the test with Rattus norvegicus was Active. The IC50 on Androgen receptor turned out to be 27 nM.
For `N#Cc1ccc2[nH]c3c(c2c1)CCCC3(O)C(F)(F)C(F)(F)F` (stereo unspecified), the IC50 on Androgen receptor is over 10000 nM.
The same measure, in the same setting: the same measure for `OC1(C(F)(F)F)CCCc2c1[nH]c1c(Cl)cc(F)cc21` (stereo unspecified): 90 nM.
Turning to `OC1(C(F)(F)C(F)(F)F)CCCc2c1[nH]c1cc(Cl)c(Cl)cc21` (stereo unspecified), the IC50 at Androgen receptor is 34 nM.
The same measure, in the same setting: to `Oc1c(Cc2ccccc2)ccc2c1[nH]c1ccc(Cl)c(Cl)c12` belongs over 1000 nM; to `CC1(O)CCCc2c1[nH]c1cc(Cl)c(Cl)cc21` (stereo unspecified), over 10000 nM; to `OC1(C(F)(F)F)CCCc2c1[nH]c1ccc(Cl)c(Cl)c21` (stereo unspecified), 95 nM.
As to `OC1(C(F)(F)F)CCCCc2c1[nH]c1c(Cl)cc(Cl)cc21` (stereo unspecified), on Androgen receptor, the IC50 came out at 600 nM.
Still for that read-out and setting: the same measure for `CC1(O)CCCc2c1[nH]c1ccc(C#N)cc21` (stereo unspecified): 9200 nM.
